Reference: PMC7835894 (Molecules, 2021)

Columns and labels:
Type in all cases: cell-based, human
[1] = tested on: cleaved Cas-3; assay: Western blotting in Caco-2 cells; conditions: Caco-2, IC50 dose, 24 h, normalized to β-actin
Protocol: The expression of Bax, Bcl-2, Cyt-C, cleaved cas-3 and p53 proteins in Caco-2 cells was determined using Western blot procedure according to the methods mentioned previously. […] Then, cells were lysed in 150 µL pre-cold lysis buffer [Tris-Base “10 mM”, NaCl “100 mM”, Ethylene glycol bis (2-aminoethyl) tetraacetic acid (EGTA) “20 mM”, ethylenediaminetetraacetic acid (EDTA) “25 mM”, 1% (v/v) NP-40, and 1% (v/v) Triton X-100; pH 7.4] immediately supplemented with 1:450 protease and phosphatase inhibitors cocktail (Sigma-Aldrich). Caco-2 cells were immediately collected by cell scraper, sonicated, and centrifuged at 12,000 rpm for 15 min. Total proteins in the produced supernatant were determined colorimetrically using the Pierce™ 660 nm Assay (Thermo Scientific, Rockford, IL, USA). Equal amounts (30 µg) of protein were mixed with sodium dodecyl sulfate (SDS)-loading buffer containing Tris-HCl, dithiothreitol (DTT), SDS, glycerol, and Bromophenol blue. The protein samples were then denatured by boiling for 5 min, allowed to cool on ice for 10 min and separated by SDS-polyacrylamide gel electrophoresis (Cleaver Scientific Ltd., Rugby, Warwickshire, UK), and transferred onto Polyvinylidene Difluoride (PVDF) membranes for 30 min using Trans-Blot® SD semi-dry transfer cell (Biorad). Membranes were then blocked with 5% (w/v) blotting-grade dry milk (Biorad) in Tris-buffered saline-Tween-20 (TBS-T), washed and incubated with antibodies against Bax, Bcl-2, cleaved caspase-3 (1:100–1:2000, Cell Signaling Technology), cytochrome c (1:500, Santa Cruz Biotechnology), p53 (1:1500, Abcam) and β-actin (1:2500, Sigma-Aldrich) for 16–17 h at 4 °C in a humidified chamber. The blots were washed, incubated at RT with matched horseradish peroxidase (HRP)-linked secondary antibodies (Dako, Denmark) for 1.5 h, and the bands were visualized with chemiluminescence Western Lightning ECL (Perkin Elmer, Waltham, MA) for 1 min in Chemi-Doc imager (Biorad, Hercules, CA, USA) and finally analyzed with Bio-Rad Image Lab software with normalization to β-actin.

[2] = tested on: Caco-2 cells; assay: Annexin V-FITC/PI apoptosis assay (flow cytometry); conditions: Caco-2, IC50 concentration
Protocol: The ability of synthetic retinoids to induce apoptosis in one of the sensitive cancer cell lines (namely, Caco-2 cells) was detected by Annexin V-FITC and PI according to the protocol of the detection kit (Beckman Coulter, Brea, CA, USA). […] Cells were collected, washed with phosphate-buffered saline (PBS) (Lonza), and resuspended in 1 mL of binding buffer. 100 µL cell suspension was incubated with 1 µL FITC-labeled Annexin V and 5 µL PI for 15 min at 4 °C in the dark. Finally, 400 µL ice-cold binding buffer was added, and the apoptotic cells in each sample were analyzed by Beckman Coulter Epics XL flow cytometer. Apoptotic index (AI) was calculated as the number of apoptotic cell deaths expressed as a percentage from the total gated cells.

[3] = tested on: Caco-2 cells; assay: Cell cycle analysis (PI, flow cytometry); conditions: Caco-2, IC50 of retinoid
Protocol: The cell cycle analysis was performed using flow cytometry (Beckman Coulter, Brea, CA, USA). […] After incubation, cells were harvested, fixed with 70% alcohol overnight, and stained with PI (50 µg/mL). DNA content was measured by Beckman Coulter Epics XL flow cytometer and G0/G1, S, and G2/M cells were gated as appropriate using Flowing Software 2.5.1 (Turko Bioimaging, Turku, Finland).

[4] = tested on: HT-29; assay: MTT antiproliferation assay; conditions: for SI (selectivity index): HT-29, SI = IC50 (WI-38)/IC50 (cancer cell line); for IC50: Homo sapiens, HT-29, MTT, 24 h, mean ± SEM
Protocol: The antiproliferation and cytotoxicity were assessed using 3-(4,5-dimethylthiazol-2-yl)-2,5-diphenyltetrazolium bromide (MTT, Serva) colorimetric assay. To investigate the antiproliferation, all cell lines were seeded at a density of 20,000 cells per well in 96-well plates and allowed to adhere overnight. […] These concentrations were prepared by diluting the stock solutions with serum-free culture media. The negative control cells were those treated with 0.1% DMSO solvent alone. The treated cells were handled in reduced light and maintained under standard culture growth conditions for 24 h. After the incubation period, MTT powder was prepared as a stock solution (5 mg/mL) and 20 μL of the MTT working reagent (final concentration 0.5 mg/mL) was added to each well. This was followed by incubation with MTT reagent for 4 h in a humidified atmosphere (37 °C, 5% CO2) with subsequent addition of 150 μL of DMSO solubilizing solvent and incubation for 20 min. The absorbance of solubilized violet formazan crystals was measured at 540 nm with Biotek 800 TS microplate reader. IC50 was calculated as the concentration of retinoid that produced 50% cell growth inhibition. For cytotoxicity assessment, WI-38 normal human fibroblast cells were used for the calculation of SI which is the ratio of IC50 retinoid (WI-38)/IC50 retinoid (cancer cell line).

[5] = tested on: WRN; assay: Gene expression analysis (qPCR) in Caco-2 cells; conditions: Caco-2, IC50, 24 h, relative to 0.1% DMSO control
Protocol: (§1) Sensitive cancer cell line (Caco-2) was used for gene expression analysis of different genes controlling differentiation, apoptosis, tumor resistance, aggressiveness, and metastasis. […] After incubation, cells were harvested, and the total RNA was purified using Favor-Prep^TM Blood/Cultured cell total RNA purification mini kit (Favorgen Biotech Corp., Ping-Tung, Taiwan). RNA was reverse transcribed into the first-strand cDNA using Revert Aid First Strand cDNA Synthesis Kit (Thermo Scientific, Waltham, MA, USA). HERA^PLUS SYBR® Green qPCR Kit (Willowfort, Nottingham, UK) was utilized in quantitative polymerase chain reactions (qPCR). Gene expression was analyzed and quantified using the 2ˆ^−ΔΔCT method.

[6] = tested on: RAR-β; assay: Gene expression analysis (qPCR) in Caco-2 cells; conditions: Caco-2, IC50, 24 h, relative to 0.1% DMSO control, normalized to GAPDH
Protocol: as §1

[7] = tested on: Caspase-3 (Cas-3); assay: Gene expression analysis (qPCR) in Caco-2 cells; conditions: Caco-2, IC50, 24 h, relative to 0.1% DMSO control
Protocol: as §1

[8] = tested on: RAR-α; assay: Gene expression analysis (qPCR) in Caco-2 cells; conditions: Caco-2, IC50, 24 h, relative to 0.1% DMSO control, normalized to GAPDH
Protocol: as §1

[9] = tested on: E-cadherin; assay: Gene expression analysis (qPCR) in Caco-2 cells; conditions: Caco-2, IC50, 24 h, relative to 0.1% DMSO control
Protocol: as §1

[10] = tested on: RAI2; assay: Gene expression analysis (qPCR) in Caco-2 cells; conditions: Caco-2, IC50, 24 h, relative to 0.1% DMSO control
Protocol: as §1

Compound	activated (cleaved) Cas-3 protein level [1]	% Apoptotic index (AI) ([2]; 12 h treatment) [%]	% early apoptotic cells (C+−) ([2]; 12 h treatment) [%]	% late apoptotic cells (C−+) ([2]; 12 h treatment) [%]	% necrotic cells (C++) ([2]; 12 h treatment) [%]	% viable cells (C−−) ([2]; 12 h treatment) [%]	% early apoptotic cells (C+−) ([2]; 24 h treatment) [%]	% late apoptotic cells (C−+) ([2]; 24 h treatment) [%]	% necrotic cells (C++) ([2]; 24 h treatment) [%]	% viable cells (C−−) ([2]; 24 h treatment) [%]	% G0-G1 ([3]; 12 h treatment) [%]	% G2M ([3]; 12 h treatment) [%]	% S ([3]; 12 h treatment) [%]	% SubG0-G1 ([3]; 12 h treatment) [%]	%G2M/G0-G1 ([3]; 12 h treatment) [%]	% G0-G1 ([3]; 24 h treatment) [%]	% G2M ([3]; 24 h treatment) [%]	% S ([3]; 24 h treatment) [%]	% SubG0-G1 ([3]; 24 h treatment) [%]	%G2M/G0-G1 ([3]; 24 h treatment) [%]	other results
CC1(C)CCC(C)(C)c2cc(C#Cc3cccc(C(=O)O)c3)ccc21 [EC19, 3-(5,5,8,8-tetramethyl-5,6,7,8-tetrahydronaphthalen-2-ylethynyl) benzoic acid]	increment in the level of activated Cas-3	6.3	6.30 ± 1.1	0.01	0.4 ± 0.1	93.65 ± 14.0	75.3 ± 13.8	0.0	0.18 ± 0.05	24.5 ± 11.8	39.1 ± 6.7	9.1 ± 1.3	51.5 ± 7.2	0.29 ± 0.1	23.4 ± 2.8	29.0 ± 4.1	22.5 ± 3.1	44.0 ± 8.2	4.5 ± 0.6	77.6 ± 10.8	SI (selectivity index) [4]: <1; IC50 [4]: > 100 µM; WRN gene expression, fold change [5]: ~ 40 fold; RAR-β gene expression, fold increase [6]: 131 fold; Cas-3 gene expression, fold change [7]: 8.6 fold; RAR-α gene expression, fold increase [8]: 2.6 fold; E-cadherin gene expression, fold change [9]: 54 fold; RAI2 gene expression, fold change [10]: 4.4 fold
CC1=C(/C=C/C(C)=C/C=C/C(C)=C/C(=O)O)C(C)(C)CCC1 [ATRA, All-trans retinoic acid, reference compound]	increment in the level of activated Cas-3		11.99 ± 1.9	0.00	0.01	87.99 ± 15.0	47.4 ± 2.5	0.0	0.28± 0.17	52.4 ± 11.5	26.1 ± 3.6	16.3 ± 1.9	57.5 ± 8.1	0.14 ± 0.1	62.5 ± 8.8	37.1 ± 4.5	31.8 ± 4.8	29.5 ± 3.5	1.6 ± 0.19	85.7 ± 16.3	
CC1(C)CCC(C)(C)c2cc(C#Cc3ccc(C(=O)O)cc3)ccc21 [EC23, 4-(5,5,8,8-tetramethyl-5,6,7,8-tetrahydronaphthalen-2-ylethynyl) benzoic acid]		8.3	8.34 ± 1.1	0.01	0.05	91.61 ± 13.7	65.4 ± 18.4	0.0	0.16 ± 0.14	34.4 ± 18.3	58.7 ± 8.2	6.8 ± 0.8	34.0 ± 4.1	0.46 ± 0.1	11.6 ± 1.7	32.7 ± 4.6	15.8 ± 1.9	47.6 ± 9.1	3.9 ± 0.43	48.3 ± 6.8	SI (selectivity index) [4]: <1; IC50 [4]: > 100 µM; WRN gene expression, fold change [5]: ~ 40 fold; RAR-β gene expression, fold increase [6]: no effect; Cas-3 gene expression, fold change [7]: did not induce significant expression; RAR-α gene expression, fold increase [8]: no effect; E-cadherin gene expression, fold change [9]: 16.3 fold; RAI2 gene expression, fold change [10]: 1.6 fold
